The values that follow come from patent US7109354B2, “Thiophene amidines, compositions thereof, and methods of treating complement-mediated diseases and conditions” (3-Dimensional Pharmaceuticals, Inc., priority 2002, dated 2006).

Structures can show the parent of a compound that is named as a salt.

This assay addresses T1, Activated human C1s (Homo sapiens, UniProt P09871).
T1 construct: purchased Calbiochem (La Jolla, Calif.)
T1 sequence (P09871 438-688 limits assumed): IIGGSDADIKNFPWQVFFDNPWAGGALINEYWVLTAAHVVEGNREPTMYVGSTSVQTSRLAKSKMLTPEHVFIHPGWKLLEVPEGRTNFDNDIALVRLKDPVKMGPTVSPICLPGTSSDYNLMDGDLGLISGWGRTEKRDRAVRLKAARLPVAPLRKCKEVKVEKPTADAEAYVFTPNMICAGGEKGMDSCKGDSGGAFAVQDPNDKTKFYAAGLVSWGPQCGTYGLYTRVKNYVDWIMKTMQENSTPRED
T1 sequence (P09871 16-437 partner limits assumed): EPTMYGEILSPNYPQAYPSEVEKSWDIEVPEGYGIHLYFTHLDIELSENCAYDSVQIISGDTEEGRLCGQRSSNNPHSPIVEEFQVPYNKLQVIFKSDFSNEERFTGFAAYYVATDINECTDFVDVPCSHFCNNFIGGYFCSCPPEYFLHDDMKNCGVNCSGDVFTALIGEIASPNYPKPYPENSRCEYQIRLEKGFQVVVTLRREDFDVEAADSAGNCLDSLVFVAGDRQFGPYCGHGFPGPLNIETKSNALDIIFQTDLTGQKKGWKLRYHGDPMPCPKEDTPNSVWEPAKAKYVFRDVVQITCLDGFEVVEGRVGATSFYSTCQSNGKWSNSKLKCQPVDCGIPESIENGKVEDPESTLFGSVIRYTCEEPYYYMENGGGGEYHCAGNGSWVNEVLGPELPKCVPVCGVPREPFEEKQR
Description: In vitro inhibition of C1s (Ki determination, C1s-catalyzed hydrolysis of Z-Gly-Arg-S-Bzl, DTNB readout). In kind it is biochemical. The conditions noted are these: substrate Z-Gly-Arg-S-Bzl 45 μM, DTNB 200 μM, C1s 2.3 nM, pH 7.5, 37° C., absorbance at 405 nm.
For orientation: Ki means the dissociation constant of the complex between target and ligand, obtained from inhibition or displacement. Read a low Ki as higher affinity. On to `CCCCCCNC(=N)Nc1ccc(-c2cccc(S(=O)(=O)c3cc(C(=N)N)sc3SC)c2)c(C)c1` [Example 136, 4-[4′-(N′-Hexyl-guanidino)-2′-methyl-biphenyl-3-sulfonyl]-5-methylsulfanyl-thiophene-2-carboxamidine trifluoroacetate], for which the Ki fell in the range of 6 to 23 nM.

`CSc1sc(C(=N)N)cc1S(=O)(=O)c1cccc(-c2ccc(NC(=N)NCCCS(C)(=O)=O)cc2C)c1` [Example 171, 4-{4′-[N′-(3-Methanesulfonyl-propyl)-guanidino]-2′-methyl-biphenyl-3-sulfonyl}-5-methylsulfanyl-thiophene-2-carboxamidine trifluoroacetate] gave a Ki of 6 to 23 nM.

`CSc1sc(C(=N)N)cc1S(=O)(=O)c1cccc(-c2ccc(NC(=N)NCCCCCS(C)(=O)=O)cc2C)c1` [Example 173, 4-{4′-[N′-(5-Methanesulfonyl-pentyl)-guanidino]-2′-methyl-biphenyl-3-sulfonyl}-5-methylsulfanyl-thiophene-2-carboxamidine trifluoroacetate] showed an inhibitory constant (Ki) of 6 to 23 nM.

The compound `CSc1sc(C(=N)N)cc1S(=O)(=O)c1cccc(-c2c(C)cc(NC(=N)N)cc2NC(=O)NCCCCS(C)(=O)=O)c1` [Example 184, 4-{4′-Guanidino-2′-[3-(4-methanesulfonyl-butyl)-ureido]-6′-methyl-biphenyl-3-sulfonyl}-5-methylsulfanyl-thiophene-2-carboxamidine trifluoroacetate] registered an inhibitory constant (Ki) of 6 to 23 nM.

On to `COc1cc(C)c(-c2cccc(S(=O)(=O)c3cc(C(=N)N)sc3SC)c2)c(COCC(=O)O)c1` [Example 192, [3′-(5-Carbamimidoyl-2-methylsulfanyl-thiophene-3-sulfonyl)-4-methoxy-6-methyl-biphenyl-2-ylmethoxy]-acetic acid trifluoroacetate], for which the inhibition constant (Ki) is 6 to 23 nM.

As for `CSc1sc(C(=N)N)cc1S(=O)(=O)c1cccc(-c2c(C)cccc2NC(=O)NCCNS(=O)(=O)c2ccccc2)c1` [Example 194, 4-{2′-[3-(2-Benzenesulfonylamino-ethyl)-ureido]-6′-methyl-biphenyl-3-sulfonyl}-5-methylsulfanyl-thiophene-2-carboxamidine trifluoroacetate], the Ki fell in the range of 6 to 23 nM.

The compound `CSc1sc(C(=N)N)cc1S(=O)(=O)c1cccc(-c2c(C)cccc2NC(=O)NCCNS(C)(=O)=O)c1` [Example 195, 4-{2′-[3-(2-Methanesulfonylamino-ethyl)-ureido]-6′-methyl-biphenyl-3-sulfonyl}-5-methylsulfanyl-thiophene-2-carboxamidine trifluoroacetate] gave a Ki of 6 to 23 nM.

With `CSc1sc(C(=N)N)cc1S(=O)(=O)c1cccc(-c2c(C)cccc2NC(=O)NCCCc2ccccc2)c1` [Example 203, 4-{6′-Methyl-2′-[3-(3-phenyl-propyl)-ureido]-biphenyl-3-sulfonyl}-5-methylsulfanyl-thiophene-2-carboxamidine trifluoroacetate], the Ki was 6 to 23 nM.

In the case of `CSc1sc(C(=N)N)cc1S(=O)(=O)c1cccc(-c2c(C)cccc2NC(=O)NCCc2c[nH]c3ccccc23)c1` [Example 207, 4-(2′-{3-[2-(1H-Indol-3-yl)-ethyl]-ureido}-6′-methyl-biphenyl-3-sulfonyl)-5-methylsulfanyl-thiophene-2-carboxamidine trifluoroacetate], the inhibition constant (Ki) is 6 to 23 nM.

Compound `CSc1sc(C(=N)N)cc1S(=O)(=O)c1cccc(-c2c(C)cccc2NC(=O)CCCS(C)(=O)=O)c1` [Example 209, N-[3′-(5-Carbamimidoyl-2-methylsulfanyl-thiophene-3-sulfonyl)-6-methyl-biphenyl-2-yl]-4-methanesulfonyl-butyramide trifluoroacetate] returned a Ki of 6 to 23 nM.

In turn, `CSc1sc(C(=N)N)cc1S(=O)(=O)c1cccc(-c2c(C)cccc2NC(=O)CCCS(N)(=O)=O)c1` [Example 210, N-[3′-(5-Carbamimidoyl-2-methylsulfanyl-thiophene-3-sulfonyl)-6-methyl-biphenyl-2-yl]-4-sulfamoyl-butyramide trifluoroacetate] yielded an inhibitory constant (Ki) of 6 to 23 nM.

As for `CSc1sc(C(=N)N)cc1S(=O)(=O)c1cccc(-c2c(C)cccc2NC(=O)CCCCCCCCCCN)c1` [Example 211, 11-Amino-undecanoic acid [3′-(5-carbamimidoyl-2-methylsulfanyl-thiophene-3-sulfonyl)-6-methyl-biphenyl-2-yl]-amide bistrifluoroacetate], the Ki is 6 to 23 nM.

Regarding `CSc1sc(C(=N)N)cc1S(=O)(=O)c1cccc(-c2ccc(F)cc2C)c1` [Example 219, 4-(4′-Fluoro-2′-methyl-biphenyl-3-sulfonyl)-5-methylsulfanyl-thiophene-2-carboxamidine trifluoroacetate], the inhibitory constant (Ki) lay within 6 to 23 nM.

The compound `CSc1sc(C(=N)N)cc1S(=O)(=O)c1cccc(-c2ccc(N)cc2C)c1` [Example 220, 4-(4′-Amino-2′-methyl-biphenyl-3-sulfonyl)-5-methylsulfanyl-thiophene-2-carboxamidine bis-trifluoroacetate] displayed an inhibition constant (Ki) of 6 to 23 nM.

The compound `CSc1sc(C(=N)N)cc1S(=O)(=O)c1cccc(-c2c(C)cc(O)cc2C)c1` [Example 224, 4-(4′-Hydroxy-2′,6′-dimethyl-biphenyl-3-sulfonyl)-5-methylsulfanyl-thiophene-2-carboxamidine trifluoroacetate] yielded an inhibitory constant (Ki) of 6 to 23 nM.

For the compound `CSc1sc(C(=N)N)cc1S(=O)(=O)c1cccc(-c2ccc(NC(N)=O)cc2C)c1` [Example 228, 5-Methylsulfanyl-4-(2 ′-methyl-4′-ureido-biphenyl-3-sulfonyl)-thiophene-2-carboxamidine trifluoroacetate], the inhibition constant (Ki) was in the range of 6 to 23 nM.

For the compound `CSc1sc(C(=N)N)cc1S(=O)(=O)c1cccc(-c2ccc(NC(=O)[C@@H](N)CCC(=O)O)cc2C)c1` [Example 231, 4-Amino-4-[3′-(5-carbamimidoyl-2-methylsulfanyl-thiophene-3-sulfonyl)-2-methyl-biphenyl-4-ylcarbamoyl]-butyric acid bis-trifluoroacetate], the Ki fell in the range of 6 to 23 nM.

Consider `CSc1sc(C(=N)N)cc1S(=O)(=O)c1cccc(-c2ccc(NC3=NCCN3)cc2C)c1` [Example 233, 4-[4′-(4,5-Dihydro-1H-imidazol-2-ylamino)-2′-methyl-biphenyl-3-sulfonyl]-5-methylsulfanyl-thiophene-2-carboxamidine bis-trifluoroacetate], for which the Ki lay within 6 to 23 nM.

`CSc1sc(C(=N)N)cc1S(=O)(=O)c1cccc(-c2c(C)cc(NC(=N)N)cc2[N+](=O)[O-])c1` [Example 236, 4-(4′-Guanidino-2′-methyl-6′-nitro-biphenyl-3-sulfonyl)-5-methylsulfanyl-thiophene-2-carboxamidine bis-trifluoroacetate] returned an inhibitory constant (Ki) of 6 to 23 nM.

For the compound `CSc1sc(C(=N)N)cc1S(=O)(=O)c1cccc(-c2c(C)cc(NC(=N)N)cc2N)c1` [Example 237, 4-(6′-Amino-4′-guanidino-2′-methyl-biphenyl-3-sulfonyl)-5-methylsulfanyl-thiophene-2-carboxamidine bis-trifluoroacetate], the Ki was in the range of 6 to 23 nM.

The compound `COC(=O)CCSCC(=O)Nc1cc(NC(=N)N)cc(C)c1-c1cccc(S(=O)(=O)c2cc(C(=N)N)sc2SC)c1` [Example 238, 3-{[3′-(5-Carbamimidoyl-2-methylsulfanyl-thiophene-3-sulfonyl)-4-guanidino-6-methyl-biphenyl-2-ylcarbamoyl]-methylsulfanyl}-propionic acid methyl ester bis-trifluoroacetate] returned an inhibition constant (Ki) of 6 to 23 nM.

`CSc1sc(C(=N)N)cc1S(=O)(=O)c1cccc(-c2c(C)cc(NC(=N)N)cc2NC(=O)CSCCC(=O)O)c1` [Example 239, 3-{[3′-(5-Carbamimidoyl-2-methylsulfanyl-thiophene-3-sulfonyl)-4-guanidino-6-methyl-biphenyl-2-ylcarbamoyl]-methylsulfanyl}-propionic acid bis-trifluoroacetate] returned a Ki of 6 to 23 nM.

In the case of `CSc1sc(C(=N)N)cc1S(=O)(=O)c1cccc(-c2c(C)cccc2NC(=O)NCCCCCC(=O)O)c1` [Example 240, 6-{3-[3′-(5-Carbamimidoyl-2-methylsulfanyl-thiophene-3-sulfonyl)-6-methyl-biphenyl-2-yl]-ureido}-hexanoic acid trifluoroacetate], the inhibition constant (Ki) was in the range of 6 to 23 nM.

The compound `CSc1sc(C(=N)N)cc1S(=O)(=O)c1cccc(-c2c(C)cccc2NC(=O)NCCc2ccccc2)c1` [Example 242, 4-[2′-Methyl-6′-(3-phenethyl-ureido)-biphenyl-3-sulfonyl]-5-methylsulfanyl-thiophene-2-carboxamidine trifluoroacetate] returned an inhibition constant Ki of 6 to 23 nM.

The compound `CSc1sc(C(=N)N)cc1S(=O)(=O)c1cccc(-c2c(C)cccc2NC(=O)CSCC(N)=O)c1` [Example 246, 2-{[3′-(5-Carbamimidoyl-2-methylsulfanyl-thiophene-3-sulfonyl)-6-methyl-biphenyl-2-ylcarbamoyl]-methylsulfanyl}-acetamide trifluoroacetate] yielded an inhibition constant (Ki) of 6 to 23 nM.
